Results reported in patent US20090123565A9, “Copper-dependent non-traditional pro-inflammatory cytokine export and methods, compositions and kits relating thereto” (Maine Medical Center Research Institute, priority 2001, published 2009).

Assays:
[1] = system: IL1α release from NIH 3T3 cell transfectants; assay: Heat shock-induced release of IL1α from NIH 3T3 cell transfectants (immunoblot of conditioned media); format: cell-based, human
Experimental: FIG. 5, comprising FIGS. 5A and 5B, depict the involvement of Cu^2+ in IL1α release. FIG. 5A is an image depicting results obtained using NIH 3T3 cells stably transfected with mIL1α-βGal. The cells were incubated for 18 hours at 37 C in the absence and presence of the Cu^2+ chelator, tetrathiomolybdate (TTM) as indicated and the untreated and treated cells either maintained at 37 C or subjected to heat shock as described in FIG. 3. The conditioned medium was evaluated for IL1α-βGal release by IL1α immunoblot analysis, and cell lysates from TTM-treated cells were used to monitor the intracellular level of IL1α-βGal expression. […] FIG. 5B is an image depicting release of IL1α-βGal in myc-S100A13 and IL1α-βGal NIH 3T3 cell cotransfectants and in insert-less vector and mIL1α-βGal NIH 3T3 cell transfectants in the presence and absence actinomycin D (10 μg/ml), as indicated, in response to heat shock. Conditioned media were processed and evaluated for IL1α-βGal immunoblot analysis as described in Tarantini et al. (2001).
Stable NIH 3T3 cell transfectants were generated accordingly with the following cDNA constructs cloned into pMEXneo (Tarantini, et al. 2001; Tarantini, et al. 1995; Tarantini, et al. 1998; LaVallee, et al. 1998; Carreira, et al. 1998; Landriscina, et al., 2001): human S100A13 with an amino-terminal fusion to a 6 Myc Tag (Myc-S100A13) (Landriscina, et al., 2001); human Myc-S100A13ΔBR (Landriscina, et al., 2001); human mIL1α (residues 113-271); human mIL1α with a carboxy-terminal fusion to a βGalactosidase tag (mIL1α-βGal) (Tarantini, et al. 2001); and pIL1α (residues 1-271) with a carboxy-terminal fusion to βGalactosidase (pIL1α-βGal) (Tarantini, et al. 2001). Recombinant human mIL1α was provided by Hoffmann-LaRoche. Recombinant human S100A13, as well as S100A13ΔBR, a S100A13 construct with the basic residue rich domain (residues 88 to 98) deleted, were generated as previously described (Landriscina, et al., 2001).
NIH 3T3 cell transfectants were grown to 70-80% confluency and prior to temperature stress, the cells were washed with serum-free DMEM. The heat shock was performed as previously described (Tarantini et al., 1995) in serum-free DMEM for 110 min at 42° C. Control cultures were incubated at 37° C. in serum-free DMEM. […] Immunoprecipitated and eluted proteins were resolved by 8% and 12% acrylamide SDS-PAGE, respectively, and evaluated by either IL1α (Tarantini, et al. 2001) or Myc (Landriscina, et al., 2001) immunoblot analysis. […] The effects of actinomycin D (Sigma Chemical Co., St. Louis, Mo.), cyclohexamide (Sigma) and tetrathiomolybdate (Sigma-Aldrich) on IL1α release were evaluated as previously reported (LaVallee et al., 1998).

[2] = system: balloon-injured rat carotid artery; assay: Macrophage infiltration into injured arterial wall (CD11b/MAC1 immunostaining); format: in vivo, Sprague-Dawley rats
Experimental: (§1) In order to address the mechanisms underlying the effect of copper chelation on neointima formation, TTM was administered for 2 weeks before the balloon injury and daily after that until the animals were euthanized at the 4th and 7th day after the procedure. Accordingly, TTM-free animals euthanized 4 and 7 days after the injury were used as controls.
Macrophage migration was evaluated by immunostaining with the macrophage-specific monoclonal antibody CD11b (MAC1) in acetone/ethanol fixed sections. To quantitate the extent of macrophage invasion, the area occupied by MAC1-positive cells as a percentage of the total area of the neointima was determined. The number of SMCs in the injured artery was counted at day 4, 7 and 14 by the modified method of Prescott et al. Briefly, the cross-sections were subjected to immunohistostaining against α-smooth muscle actin using a commercially available detection system (DAKO) and counter-stained with hematoxylin. The number of nuclei that were accompanied by α-smooth muscle actin-positive cytoplasm was counted at a magnification of ×40 in 10 independent sections from each rat by an observer in a blind manner.

[3] = system: balloon-injured rat carotid artery; assay: S100A13, IL1, p40, PS expression in balloon-injured vessel wall (immunohistochemistry); format: in vivo, Sprague-Dawley rats
Experimental: as §1
To evaluate S100A13, FGF1, p40 and IL-1α expression in balloon-injured arteries, paraffin-embedded specimens from the 4th, 7th and 14th day after the injury were cut into 5-μm cross sections, and mounted on glass slides. These sections were incubated in 10% hydrogen peroxide for 90 minutes to block endogenous peroxidase activity. Nonspecific binding was prevented by preincubating the sections with 5% bovine serum albumin (BSA; Sigma) in PBS. The sections were sequentially incubated with polyclonal rabbit anti-S100A13 antibody at a concentration of 1:200; polyclonal rabbit anti-FGF1 antibody at a concentration of 1:500; monoclonal mouse anti-p40 antibody at a concentration of 1:100; polyclonal rabbit anti-IL-1a antibody at a concentration of 1:50; phosphatidylserine (PS) antibody. After they were washed with PBS, the sections were incubated with anti-rabbit and anti-mouse IgG-conjugated horseradish peroxidase (Biorad) for an additional 30 minutes at room temperature. Each incubation was followed by a wash in PBS. Staining was visualized using the chromogen 0.06% 3,3′-diaminobenzidine/5% hydrogen peroxide in 0.05 mol/L Tris-HCl (pH 7.6). Control sections were incubated with nonimmune rabbit IgG at a concentration of 1:200.

Q: For `[NH4+].[NH4+].[SH-].[SH-].[S]=[Mo]=[S]` [TTM, ammonium tetrathiomolybdate], which “concentration at which TTM inhibited release of IL1α in response to heat shock” value ([1]; NIH 3T3 cells stably transfected with mIL1α-βGal, incubated 18 hours at 37 C with TTM, then heat shock, IL1α immunoblot (FIG. 5A)) is on record?
A: 250 nM

Q: And the “repression of release of IL1α-βGal in response to temperature stress” value ([1]; TTM introduced into the Myc-S100A13 and IL1α-βGal cotransfectant system with actinomycin D)?
A: able to repress

Q: What about the “MAC1 positive cells in controls compared to treated rats” value ([2]; 4 and 7 days after the injury) of the same compound?
A: marked increase

Q: And the “macrophages in the neointima vs control group” value ([2]; 4 days after injury)?
A: not detectably different

Q: And the “macrophages within the arterial wall” value ([2]; any time point after the injury (4 and 7 days))?
A: very few macrophages were present

Q: What about the macrophages vs controls ([2]; day 7 after injury) of the same compound?
A: more pronounced in the controls

Q: And the “S100A13, IL1 and PS staining in the neointima” value ([3]; 4 and 7 days after injury)?
A: no positive staining was detected

Q: And the IL1 positive staining ([3]; 7 and 14 days after the balloon injury)?
A: almost complete inhibition

Q: What about the “presence of S100A13 compared to the controls” value ([3]; 7 and 14 days after the injury) of the same compound?
A: significantly decreased

Q: And the “S100A13, IL1 and PS staining in the neointima” value ([3]; 14 days after the injury)?
A: only a few cells were positively stained

Q: What about the phosphatidylserine flipping ([3]; balloon-injured arteries, controls did show it) of the same compound?
A: did not show phosphatidylserine flipping
